Row | Structure (SMILES) | melting point
1 | CCCCCc1noc(-c2ccc(N3CCN(C(=O)c4ccccc4C(F)(F)F)CC3)nn2)n1 [Example 7.1, {4-[6-(3-pentyl[1,2,4]oxadiazol-5-yl)pyridazin-3-yl]piperazin-1-yl}-(2-trifluoromethylphenyl)methanone] | 164 °C
2 | CCc1nc(-c2ccc(N3CCN(C(=O)c4ccccc4C(F)(F)F)CC3)nn2)no1 [Example 4, {4-[6-(5-ethyl-[1,2,4]oxadiazol-3-yl)pyridazin-3-yl]piperazin-1-yl}-(2-trifluoromethylphenyl)methanone] | 204 °C
3 | O=C(c1cc(F)ccc1C(F)(F)F)N1CCN(c2ccc(-c3ncc(-c4ccccc4)o3)nn2)CC1 [Example 12, (5-fluoro-2-trifluoromethylphenyl)-{4-[6-(5-phenyloxazol-2-yl)pyridazin-3-yl]piperazin-1-yl}methanone] | 122 to 125 °C

Other lines, results leading:

Row | melting point | Structure (SMILES)
4 | 175 °C | CCCCc1nc(-c2ccc(N3CCN(C(=O)c4ccccc4C(F)(F)F)CC3)nn2)no1 [Example 4.1, {4-[6-(5-butyl[1,2,4]oxadiazol-3-yl)pyridazin-3-yl]piperazin-1-yl}-(2-trifluoromethylphenyl)methanone]
5 | 226 °C | CCCc1noc(-c2ccc(N3CCN(C(=O)c4ccccc4C(F)(F)F)CC3)nn2)n1 [Example 7, {4-[6-(3-propyl[1,2,4]oxadiazol-5-yl)pyridazin-3-YL]piperazin-1-yl}-(2-trifluoromethylphenyl)methanone]

From patent publication US7767677B2, “Heterocyclic derivatives and their use as stearoyl-CoA desaturase inhibitors” (Xenon Pharmaceuticals Inc., priority 2004, dated 2010)
